Assay results published in patent US20100261162A1, “Methods of assaying for telomerase activity and compositions related to same” (priority 2005, published 2010).

Target: T1, telomerase (HEK293T cell lysates) (Homo sapiens, UniProt O14746)
T1 construct: effect of TBT oligonucleotide length in HEK293T cell lysates; endogenous in cells; host or cells: HEK293T cell lysate (CHAPS lysis)
Assay: TBT assay, effect of telomerase oligonucleotide template length
Type: biochemical
Details: TBT luminescence, short (0.5 repeat), 2.5 repeat and 3.5 repeat oligonucleotides compared
From the text: FIG. 16 illustrates a graphical representation showing the effect of TBT oligonucleotide length in HEK293T cell lysates according to an embodiment of the present invention.
Design of the telomerase-specific oligonucleotide template attached to the magnetic bead is critical for maximizing sensitivity of the TBT assay. The minimal recognition DNA sequence for base-pairing between the RNA component of telomerase and the telomere end is 9 bases—TAGGGTTAG, however, multiple repeats of this sequence more accurately depict the nature of chromosome telomere ends and the scanning nature of enzymes used to achieve accurate base-pair recognition. Telomerase templates include those ranging from 1.5-3 hexameric repeats.
Three forms of the oligonucleotide were tested. A short version containing a partial (0.5) repeat, a slightly longer version containing 2.5 repeats, and a longer version with 3.5 repeats. […] This increased dynamic range is likely to translate into increased sensitivity of the assay.

T1 sequence (O14746 whole entry): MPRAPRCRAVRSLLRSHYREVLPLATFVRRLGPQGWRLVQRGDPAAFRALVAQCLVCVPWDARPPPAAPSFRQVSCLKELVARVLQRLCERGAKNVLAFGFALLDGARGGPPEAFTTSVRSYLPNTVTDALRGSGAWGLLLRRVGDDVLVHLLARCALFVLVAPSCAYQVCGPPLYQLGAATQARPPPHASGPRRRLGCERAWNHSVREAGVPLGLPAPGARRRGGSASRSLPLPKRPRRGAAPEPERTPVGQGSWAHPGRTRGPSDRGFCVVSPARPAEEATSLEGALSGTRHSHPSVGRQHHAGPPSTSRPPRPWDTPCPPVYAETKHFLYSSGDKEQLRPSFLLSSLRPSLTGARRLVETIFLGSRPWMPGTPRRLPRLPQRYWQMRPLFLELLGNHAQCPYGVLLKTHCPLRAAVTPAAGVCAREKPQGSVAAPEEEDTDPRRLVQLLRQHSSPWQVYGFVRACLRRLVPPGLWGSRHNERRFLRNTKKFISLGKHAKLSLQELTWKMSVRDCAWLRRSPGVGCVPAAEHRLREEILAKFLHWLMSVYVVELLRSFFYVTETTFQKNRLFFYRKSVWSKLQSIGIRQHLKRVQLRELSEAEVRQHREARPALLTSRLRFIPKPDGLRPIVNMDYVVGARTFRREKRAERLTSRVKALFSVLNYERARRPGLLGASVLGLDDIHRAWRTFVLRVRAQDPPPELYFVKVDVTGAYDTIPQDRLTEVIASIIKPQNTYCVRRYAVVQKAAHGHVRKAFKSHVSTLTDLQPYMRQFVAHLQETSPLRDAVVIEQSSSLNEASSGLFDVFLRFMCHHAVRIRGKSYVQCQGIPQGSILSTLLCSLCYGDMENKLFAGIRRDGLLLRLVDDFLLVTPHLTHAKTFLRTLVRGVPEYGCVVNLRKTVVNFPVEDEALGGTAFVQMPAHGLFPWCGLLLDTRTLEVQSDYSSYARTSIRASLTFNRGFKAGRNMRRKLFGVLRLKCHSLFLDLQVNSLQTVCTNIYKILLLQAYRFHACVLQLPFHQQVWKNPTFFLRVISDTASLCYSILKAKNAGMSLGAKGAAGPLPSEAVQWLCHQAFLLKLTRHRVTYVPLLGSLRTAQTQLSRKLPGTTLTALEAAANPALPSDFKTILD

## longer version: Long human telomerase recognition nucleotide sequence, 5′ thiol-linked, 3.5 repeats, attached to magnetic bead (DNA TTTTTTAATCCGTCGAGCAGAGTTAGGGTTAGGGTTAGGGTTAGGGTTAG; 5' thiol linker, attached to magnetic bead, further chemistry not given here)
  absolute signal relative to the background signal (no telomerase extract): better absolute signal relative to the background signal
